Experimental findings from article PMC9313812, “The Pseudo‐Natural Product Rhonin Targets RHOGDI” (Angewandte Chemie (International Ed. in English), 2022) are described below.

Experiment [1] has as its system GTP-bound RHO GTPases (RHOA, RAC1, CDC42). In words: G-LISA activation assays. The following applies: 10 μM, 24 h. It counts as cell-based. On the procedure: 40,000 x g for 30 min at 4°C. Supernatants were collected as cytoplasmic fraction and pellets were resuspended into a homogenization buffer (0.25 M sucrose, 20 mM Tris/HCl pH 7.4, 25 mM KCl, 5 mM MgCl2) and further centrifuged (2 h at 100,000 x g) using an iodixanol (OptiPrep, Axis Shield) gradient solution. Obtained fractions were used for immunoblotting.
NIH/3T3 cells were seeded in a 96 plate (10,000 cell per well/ plate name: Essen Bioscience NO 4379). NIH/3T3 cells were grown till 80% confluence and then serum starved (0 % FCS) for 24 h. Scratch was performed using the Incucyte Woundmaker Tool. Next, 10 µM Rhonin was added to the wells. As controls, 2 µg/ml RHO inhibitor I (cat#CT04/ cytoskeleton) and 0.5% DMSO were used. Cell migration was monitored using IncuCyte ZOOM for a period of 48 h. The images were analyzed by the Incucyte Scratch Wound Analysis Software.
G-LISA activation assays for RHOA, RAC1 and CDC42 […]
GTPase primary antibody (RAC1, CDC42 or RHOA) was added and the tubes and were incubated for 45 min at room temperature. […] Absorption was detected at 490 nm using a plate reader (Tecan Sparks).
Aqueous solubility of compounds was assessed by determination of the kinetic solubility of a test compound in aqueous buffer compared to a solution in organic solvent (acetonitrile). […]

The next experiment addresses T1, RHOGDI1 (Homo sapiens, UniProt P52565).
T1 construct: GST; made in house; host or cells: E. coli
In words: Fluorescence polarization competition with FITC-labelled GerGer-Rab1 peptide. Format: binding. The following applies: 5 μM FITC-labelled GerGer-Rab1 peptide, 50 μM RHOGDI1. The protocol:
Figure 4 Compound 7 a is a RHOGDI1 inhibitor. a) Structure of the affinity probes 8 and 9. b) Affinity‐based enrichment of RHOGDI1 from NIH/3T3 lysates by probe 8 as compared to probe 9 and detection using a RHOGDI1 antibody. c) Competition pulldown was performed as in b in presence of S10a as a competitor. d) Structure of the fluorescent derivative 10. e) Binding of derivative 10 to RHOGDI1‐3. […] Fluorescence polarization measurements using 10 and RHOGDI1‐3. […] Representative data (n=3). P: pellet; S: supernatant. g) Competition of derivative 10 with RAC1. Fluorescence polarization measurements after adding 2 μM prenylated RAC1 or non‐prenylated RAC1 to 2 μM compound 10 and 5 μM RHOGDI1. Representative data (n=3). h) Fluorescence polarization measurements upon titration of 7 a into a mixture of 5 μM FITC‐labelled GerGer‐Rab1 peptide and 50 μM RHOGDI1.
(Polarisation of emitted light reports the rotation of a fluorescent probe.)

For the next experiment, the target named is T2, PDEδ (Homo sapiens, UniProt O43924).
T2 construct: GST (N); made in house; host or cells: E. coli Rosetta 2
In words: Competition-based fluorescence polarization with fluorescein-labelled atorvastatin. It counts as binding. To be noted: selectivity test. The protocol:
RHOGDI1 displaced liposome -bound RAC1 from the surface of L1 chip with a koff of 0.016 […]
bound RAC1. Calculated rate constants by mono-exponential fitting of RU decays were 0.02 and 0.032 s-1 for RHOGDI1-mediated RAC1 displacement from the liposomes in the presence of 7a and 7d, respectively. (d) Competition-based fluorescence polarization experiments were performed by titration of 7a against 10 nM fluorescein-labelled atorvastatin and GST-PDEδ.
(e) Fluorescence polarization experiment using 10 nM probe 10 and titration of PDEδ.
(1 picture or pasted object on this page, not shown here)
Label-free quantification (LFQ) intensities were logarithmized (log2) and proteins, which were not three times quantified in at least one of the groups, were filtered off. […]
Fluorescence polarization
The binding of probe 10 to RHOGDI1-3 was confirmed by fluorescence polarization experiments. […] The change in fluorescence polarization was monitored at an excitation / emission wavelengths of 535 nm and 593 nm, respectively. […]
To determine the effect of 7a on the binding of RHOGDI1 to non-prenylated RAC1-GDP, fluorescence polarization measurements were performed by titrating 1 µM TAMRA-GDP-bound RAC1 with increasing concentrations of RHOGDI1 in the presence and absence of 50 µM 7a in buffer containing 30 mM Tris-HCl, pH 7.5, 150 mM NaCl, 5 mM MgCl2, 1% DMSO. […]

Consider `COC(=O)C1(C(CC(=O)c2cccnc2)c2ccccc2)N=C(c2ccc(Br)cc2)C2C(=O)N(C)C(=O)C21` (stereo not drawn) [7l], for which the “Levels of GTP-bound RHO GTPases (in words)” value in experiment [1] is on record as “increased”.

Regarding `COC(=O)C1(C(CC(=O)c2ccccc2)c2ccccc2)N=C(c2ccc(Br)cc2)C2C(=O)N(C)C(=O)C21` (stereo not drawn) [7a], the “Competition with binding of RHOGDI1 to GerGer-RAB1 peptide (in words)” value at RHOGDI1 is reported as “competed”. The “Competition with fluorescein-labelled atorvastatin for binding to PDEδ (in words)” value on PDEδ is reported as “does not compete”.
